{"source": "ChEMBL document CHEMBL5712891", "about": "“Inhibition of BET bromodomain-dependent XIAP and FLIP expression sensitizes KRAS-mutated NSCLC to pro-apoptotic agents” (Cell Death Dis, 2016)", "key": {"A549 [1]": {"test_system": "A549", "assay": "Induction of cell cycle arrest in human A549 cells assessed as accumulation of cells at G2/M phase at 0.25 uM for 24 hrs by Click-iT EdU Alexa Fluor 647 flow cytometric assay kit analysis (reference value: 3%)", "format": "functional"}, "DV-90 [2]": {"test_system": "DV-90", "assay": "Induction of cell cycle arrest in human DV-90 cells assessed as accumulation of cells at G2/M phase at 0.1 uM for 24 hrs by Click-iT EdU Alexa Fluor 647 flow cytometric assay kit analysis (reference value: 24%)", "format": "functional"}, "DV-90 [3]": {"test_system": "DV-90", "assay": "Induction of cell cycle arrest in human DV-90 cells assessed as accumulation of cells at G0/G1 phase at 0.5 uM for 24 hrs by Click-iT EdU Alexa Fluor 647 flow cytometric assay kit analysis (reference value: 44%)", "format": "functional"}, "DV-90 [4]": {"test_system": "DV-90", "assay": "Induction of cell cycle arrest in human DV-90 cells assessed as accumulation of cells at G0/G1 phase at 0.1 uM for 24 hrs by Click-iT EdU Alexa Fluor 647 flow cytometric assay kit analysis (reference value: 44%)", "format": "functional"}, "NCI-H1373 [5]": {"test_system": "NCI-H1373", "assay": "Induction of cell cycle arrest in human NCI-H1373 cells assessed as accumulation of cells at G2/M phase at 1 uM for 24 hrs by Click-iT EdU Alexa Fluor 647 flow cytometric assay kit analysis (reference value: 13%)", "format": "functional"}, "NCI-H1373 [6]": {"test_system": "NCI-H1373", "assay": "Induction of cell cycle arrest in human NCI-H1373 cells assessed as accumulation of cells at G0/G1 phase at 1 uM for 24 hrs by Click-iT EdU Alexa Fluor 647 flow cytometric assay kit analysis (reference value: 40%)", "format": "functional"}, "NCI-H1373 [7]": {"test_system": "NCI-H1373", "assay": "Induction of cell cycle arrest in human NCI-H1373 cells assessed as accumulation of cells at G2/M phase at 0.5 uM for 24 hrs by Click-iT EdU Alexa Fluor 647 flow cytometric assay kit analysis (reference value: 13%)", "format": "functional"}, "NCI-H1373 [8]": {"test_system": "NCI-H1373", "assay": "Induction of cell cycle arrest in human NCI-H1373 cells assessed as accumulation of cells at G2/M phase at 0.1 uM for 24 hrs by Click-iT EdU Alexa Fluor 647 flow cytometric assay kit analysis (reference value: 13%)", "format": "functional"}, "NCI-H1373 [9]": {"test_system": "NCI-H1373", "assay": "Induction of cell cycle arrest in human NCI-H1373 cells assessed as accumulation of cells at G0/G1 phase at 0.1 uM for 24 hrs by Click-iT EdU Alexa Fluor 647 flow cytometric assay kit analysis (reference value: 40%)", "format": "functional"}, "DV-90 [10]": {"test_system": "DV-90", "assay": "Induction of apoptosis in human DV-90 cells assessed as viable cells at 0.5 uM for 24 hrs by annexin V-PI staining based flow cytometric analysis (reference value: 81.5%)", "format": "functional", "settings": "read-out: Activity"}, "DV-90 [11]": {"test_system": "DV-90", "assay": "Induction of apoptosis in human DV-90 cells assessed as viable cells at 2.5 uM for 24 hrs by annexin V-PI staining based flow cytometric analysis (reference value: 81.5%)", "format": "functional", "settings": "read-out: Activity"}, "DV-90 [12]": {"test_system": "DV-90", "assay": "Induction of apoptosis in human DV-90 cells assessed as necrotic cells at 2.5 uM for 24 hrs by annexin V-PI staining based flow cytometric analysis (reference value: 5.4%)", "format": "functional"}, "NCI-H460 [13]": {"test_system": "NCI-H460", "assay": "Induction of apoptosis in human NCI-H460 cells assessed as early apoptotic cells at 2.5 uM for 24 hrs by annexin V-PI staining based flow cytometric analysis (reference value: 0.2%)", "format": "functional"}, "NCI-H460 [14]": {"test_system": "NCI-H460", "assay": "Induction of apoptosis in human NCI-H460 cells assessed as late apoptotic cells at 2.5 uM for 24 hrs by annexin V-PI staining based flow cytometric analysis (reference value: 3.0%)", "format": "functional"}, "A549 [15]": {"test_system": "A549", "assay": "Downregulation of c-MYC protein level in human A549 cells at 100 to 5000 nM upto 24 hrs by Western blot analysis", "format": "functional, cell-based", "settings": "dose 100-5000 nM"}, "NCI-H23": {"test_system": "NCI-H23", "assay": "Downregulation of c-MYC mRNA expression level in human NCI-H23 cells at 0.1 to 1 uM for 24 hrs by qRT-PCR analysis", "format": "functional, cell-based", "settings": "dose 0.1-1 µM"}, "NCI-H460 [16]": {"test_system": "NCI-H460", "assay": "Downregulation of c-MYC mRNA expression level in human NCI-H460 cells at 0.1 to 1 uM for 24 hrs by qRT-PCR analysis", "format": "functional, cell-based", "settings": "dose 0.1-1 µM"}, "NCI-H1373 [17]": {"test_system": "NCI-H1373", "assay": "Downregulation of c-MYC level SCID mouse tumor tissue xenografted with human NCI-H1373 cells at 50 mg/kg, ip for 24 hrs by Western blot analysis", "format": "functional, organism-based", "settings": "Neoplasm"}, "NCI-H441": {"test_system": "NCI-H441", "assay": "Downregulation of XIAP mRNA expression level in human NCI-H441 cells at 0.1 to 1 uM for 24 hrs by qRT-PCR analysis", "format": "functional, cell-based", "settings": "dose 0.1-1 µM"}, "NCI-H2030": {"test_system": "NCI-H2030", "assay": "Downregulation of FLIP mRNA expression level in human NCI-H2030 cells at 0.1 to 1 uM for 24 hrs by qRT-PCR analysis", "format": "functional, cell-based", "settings": "dose 0.1-1 µM"}, "A549 [18]": {"test_system": "A549", "assay": "Induction of TRAIL dependent apoptosis in human A549 cells by annexin V-PI staining based flow cytometric analysis", "format": "functional, cell-based"}, "NCI-H1373 [19]": {"test_system": "NCI-H1373", "assay": "Antiproliferative activity against human NCI-H1373 cells at 500 to 2500 nM in presence of TNF by cell titre glo assay", "format": "functional, cell-based", "settings": "dose 500-2500 nM"}, "A549 [20]": {"test_system": "A549", "assay": "Antitumor activity against human A549 cells assessed as test to control tumor ratio at 80 mg/kg, ip for 28 days relative to control", "format": "functional", "settings": "time 28 day"}, "DV-90 [21]": {"test_system": "DV-90", "assay": "Induction of cell cycle arrest in human DV-90 cells assessed as accumulation of cells at G2/M phase at 0.1 uM for 24 hrs by Click-iT EdU Alexa Fluor 647 flow cytometric assay kit analysis (reference value: 25%)", "format": "functional"}, "DV-90 [22]": {"test_system": "DV-90", "assay": "Induction of cell cycle arrest in human DV-90 cells assessed as accumulation of cells at G2/M phase at 0.25 uM for 24 hrs by Click-iT EdU Alexa Fluor 647 flow cytometric assay kit analysis (reference value: 25%)", "format": "functional"}, "DV-90 [23]": {"test_system": "DV-90", "assay": "Induction of cell cycle arrest in human DV-90 cells assessed as accumulation of cells at G2/M phase at 0.5 uM for 24 hrs by Click-iT EdU Alexa Fluor 647 flow cytometric assay kit analysis (reference value: 25%)", "format": "functional"}, "NCI-H460 [24]": {"test_system": "NCI-H460", "assay": "Induction of cell cycle arrest in human NCI-H460 cells assessed as accumulation of cells at S phase at 0.5 uM for 24 hrs by Click-iT EdU Alexa Fluor 647 flow cytometric assay kit analysis (reference value: 54%)", "format": "functional"}, "DV-90 [25]": {"test_system": "DV-90", "assay": "Induction of cell cycle arrest in human DV-90 cells assessed as accumulation of cells at G0/G1 phase at 0.1 uM for 24 hrs by Click-iT EdU Alexa Fluor 647 flow cytometric assay kit analysis (reference value: 47%)", "format": "functional"}, "DV-90 [26]": {"test_system": "DV-90", "assay": "Induction of cell cycle arrest in human DV-90 cells assessed as accumulation of cells at G2/M phase at 0.25 uM for 24 hrs by Click-iT EdU Alexa Fluor 647 flow cytometric assay kit analysis (reference value: 21%)", "format": "functional"}, "DV-90 [27]": {"test_system": "DV-90", "assay": "Induction of cell cycle arrest in human DV-90 cells assessed as accumulation of cells at G0/G1 phase at 0.5 uM for 24 hrs by Click-iT EdU Alexa Fluor 647 flow cytometric assay kit analysis (reference value: 47%)", "format": "functional"}, "NCI-H460 [28]": {"test_system": "NCI-H460", "assay": "Induction of apoptosis in human NCI-H460 cells assessed as late apoptotic cells at 2.5 uM for 24 hrs by annexin V-PI staining based flow cytometric analysis (reference value: 3.7%)", "format": "functional"}}, "note": "Active and inactive are the calls of the source. No cut-off for these calls is given here.", "data": [{"smiles": "Cc1sc2c(c1C)C(c1ccc(Cl)cc1)=N[C@@H](CC(=O)OC(C)(C)C)c1nnc(C)n1-2", "values": [{"measurement": "Activity", "setting": "A549 [1]", "value": 3, "unit": "%"}, {"measurement": "Activity", "setting": "DV-90 [2]", "value": 31, "unit": "%"}, {"measurement": "Activity", "setting": "DV-90 [3]", "value": 51, "unit": "%"}, {"measurement": "Activity", "setting": "DV-90 [4]", "value": 41, "unit": "%"}, {"measurement": "Activity", "setting": "NCI-H1373 [5]", "value": 21, "unit": "%"}, {"measurement": "Activity", "setting": "NCI-H1373 [6]", "value": 68, "unit": "%"}, {"measurement": "Activity", "setting": "NCI-H1373 [7]", "value": 22, "unit": "%"}, {"measurement": "Activity", "setting": "NCI-H1373 [8]", "value": 17, "unit": "%"}, {"measurement": "Activity", "setting": "NCI-H1373 [9]", "value": 44, "unit": "%"}, {"measurement": "viability at 0.5 µM", "setting": "DV-90 [10]", "value": 61.3, "unit": "%"}, {"measurement": "viability at 2.5 µM", "setting": "DV-90 [11]", "value": 50.7, "unit": "%"}, {"measurement": "Activity", "setting": "DV-90 [12]", "value": 31, "unit": "%"}, {"measurement": "Activity", "setting": "NCI-H460 [13]", "value": 0.4, "unit": "%"}, {"measurement": "Activity", "setting": "NCI-H460 [14]", "value": 5.5, "unit": "%"}, {"measurement": "Activity", "setting": "A549 [15]", "value": "inactive"}, {"measurement": "Activity", "setting": "NCI-H23", "value": "Active"}, {"measurement": "Activity", "setting": "NCI-H460 [16]", "value": "Active"}, {"measurement": "Activity", "setting": "NCI-H1373 [17]", "value": "Active"}, {"measurement": "Activity", "setting": "NCI-H441", "value": "Active"}, {"measurement": "Activity", "setting": "NCI-H2030", "value": "Active"}, {"measurement": "Activity", "setting": "A549 [18]", "value": "Active"}, {"measurement": "Activity", "setting": "NCI-H1373 [19]", "value": "Active"}, {"measurement": "T/C", "setting": "A549 [20]", "value": 60, "unit": "%"}]}, {"smiles": "CCNC(=O)C[C@@H]1N=C(c2ccc(Cl)cc2)c2cc(OC)ccc2-n2c(C)nnc21", "note": "[MOLIBRESIB]", "values": [{"measurement": "Activity", "setting": "DV-90 [21]", "value": 31, "unit": "%"}, {"measurement": "Activity", "setting": "DV-90 [22]", "value": 31, "unit": "%"}, {"measurement": "Activity", "setting": "DV-90 [23]", "value": 30, "unit": "%"}, {"measurement": "Activity", "setting": "NCI-H460 [24]", "value": 46, "unit": "%"}]}, {"smiles": "Cc1sc2c(c1C)C(c1ccc(Cl)cc1)=N[C@@H](CC(=O)Nc1ccc(O)cc1)c1nnc(C)n1-2", "note": "[BIRABRESIB]", "values": [{"measurement": "Activity", "setting": "DV-90 [25]", "value": 50, "unit": "%"}, {"measurement": "Activity", "setting": "DV-90 [26]", "value": 26, "unit": "%"}, {"measurement": "Activity", "setting": "DV-90 [27]", "value": 56, "unit": "%"}, {"measurement": "Activity", "setting": "NCI-H460 [28]", "value": 5.1, "unit": "%"}]}]}
